Test [1] can be described thus: Test for linoleic acid autooxidation inhibitory effect. Particulars: sample 0.01% (w/v) in ethanol, stored in darkness at 40° C., degree of oxidation after two weeks, FIGS. 1 and 2. The test is classed as biochemical. As for the experimental part:
<Test for Linoleic Acid Autooxidation Inhibitory Effect> 2 ml of 2.5% (w/v) linoleic acid was mixed with 4 ml of a 0.05 M phosphate buffer (pH 7.0) to prepare a reaction liquid. The compound of the present invention was dissolved in 99.5% ethanol at a concentration of 0.01% (w/v) 2 ml of the resulting solution and 2 ml of distilled water were added to the reaction liquid to make the total volume to 10 ml, mixed, and placed in a brown threaded bottle to prepare a sample. A negative control was prepared by adding, to the reaction liquid, only 2 ml of 99.5% ethanol and 2 ml of distilled water, without adding anything else. […] The measurement was carried out by mixing 0.1 ml of a sample, 9.7 ml of 75% ethanol, and 0.1 ml of a 30% ammonium thiocyanate solution, adding 0.1 ml of 2×10^−2 M ferrous chloride (3.5% hydrochloric acid solution) thereto, and exactly 3 minutes later, measuring the absorbance at 500 nm. From the measured values, the difference in absorbance and the rate of autooxidation after two weeks were obtained. The same measurement was made with the blanks, and ΔAbsorbance=(Absorbance of Main Sample)−(Absorbance of Blank) was taken. The absorbance increases with oxidation of the sample, and after reaching the maximum, decreases with consumption of the sample to be oxidized. Thus earlier occurrence of the peak absorbance represents weaker antioxidative activity. […]

Test [2] in a line: DPPH radical scavenging test. As to conditions: concentration of the sample solution; acetate buffer pH 5.5, 30° C., 30 minutes, absorbance at 517 nm. The test is classed as biochemical. As to the method: The antioxidative activity of the compound of not lower than 95% purity of the present invention prepared in Example 1 was evaluated using a stable radical, 1,1-diphenyl-2-picrylhydrazyl (DPPH).
To 1600 μl of 250 mM acetate buffer (pH=5.5), 1200 μl of ethanol and 400 μl of a sample (at an arbitrary concentration in ethanol) were mixed, and pre-incubated at 30° C. for 5 minutes. 800 μl of a 500 μM DPPH/ethanol solution was added, mixed, and left to stand at 30° C. for 30 minutes. Then the absorbance of the sample at 517 nm was measured.
A negative control was prepared by adding, instead of the sample solution, only ethanol to the reaction liquid without adding anything else. A positive control was prepared in the same way as for the present compound at the same concentration in ethanol, except that the present compound was replaced with α-tocopherol. From the measured absorbances, the radical scavenging ratio was calculated in accordance with the following formula. Scavenging ratio (%)=(1−[Absorbance of Sample]/[Absorbance of Control])×100
The scavenging ratios were measured with the sample concentration in the sample solution being changed stepwise, to determine the concentration of the sample solution at which the DPPH radical scavenging ratio was 50%. This concentration was taken as the 50% DPPH radical scavenged concentration. […]
(In general: The DPPH test is a chemical assay of radical scavenging.)

In the case of `O=C(O)c1cc(O)c(O)c(O)c1` [gallic acid], the “antioxidative activity (oxidation inhibitory effect on linoleic acid)” value in test [1] is given as “weaker oxidation inhibitory effect on linoleic acid”.

As to `Cc1c(C)c2c(c(C)c1O)CC[C@@](C)(CCC[C@H](C)CCC[C@H](C)CCCC(C)C)O2` [α-tocopherol], the “50% DPPH radical scavenged concentration” value in test [2] stood at 121.5 µg/mL.
